In the supplement of paper PMC11451515:

System: NOMO1
Assay: cell viability relative to DMSO control; higher = less cytotoxic
Conditions: 48 h
Outline: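 Viability values are per-plate percentages of DMSO wells, with background from cell-free wells. Library compounds in DMSO were pin-dosed, in an 11-point threefold series from 47 μM to 0.79 nM, onto NOMO1 or SEM (500 cells/well) or P12-Ichikawa (1000 cells/well) leukemia cells in 1536-well plates (5 μl). Those cells had been adapted for at least four passages in each medium, and CellTiter-Glo One luminescence was read after 48 h at 37°C.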

[1] = HPLM + 10% dialyzed FBS, 0.000781 µM
[2] = HPLM + 10% dialyzed FBS, 0.00234 µM
[3] = HPLM + 10% dialyzed FBS, 0.00702 µM
[4] = HPLM + 10% dialyzed FBS, 0.0211 µM
[5] = HPLM + 10% dialyzed FBS, 0.0632 µM
[6] = HPLM + 10% dialyzed FBS, 0.19 µM
[7] = HPLM + 10% dialyzed FBS, 0.569 µM
[8] = HPLM + 10% dialyzed FBS, 1.71 µM
[9] = HPLM + 10% dialyzed FBS, 5.12 µM
[10] = HPLM + 10% dialyzed FBS, 15.4 µM
[11] = HPLM + 10% dialyzed FBS, 46.1 µM
[12] = RPMI 5 mM glucose + 10% FBS, 0.000781 µM
[13] = RPMI 5 mM glucose + 10% FBS, 0.00234 µM
[14] = RPMI 5 mM glucose + 10% FBS, 0.00702 µM
[15] = RPMI 5 mM glucose + 10% FBS, 0.0211 µM
[16] = RPMI 5 mM glucose + 10% FBS, 0.0632 µM
[17] = RPMI 5 mM glucose + 10% FBS, 0.19 µM
[18] = RPMI 5 mM glucose + 10% FBS, 0.569 µM
[19] = RPMI 5 mM glucose + 10% FBS, 1.71 µM
[20] = RPMI 5 mM glucose + 10% FBS, 5.12 µM
[21] = RPMI 5 mM glucose + 10% FBS, 15.4 µM
[22] = RPMI 5 mM glucose + 10% FBS, 46.1 µM
[23] = RPMI 5 mM glucose + 10% dialyzed FBS, 0.000781 µM
[24] = RPMI 5 mM glucose + 10% dialyzed FBS, 0.00234 µM
[25] = RPMI 5 mM glucose + 10% dialyzed FBS, 0.00702 µM
[26] = RPMI 5 mM glucose + 10% dialyzed FBS, 0.0211 µM
[27] = RPMI 5 mM glucose + 10% dialyzed FBS, 0.0632 µM
[28] = RPMI 5 mM glucose + 10% dialyzed FBS, 0.19 µM
[29] = RPMI 5 mM glucose + 10% dialyzed FBS, 0.569 µM
[30] = RPMI 5 mM glucose + 10% dialyzed FBS, 1.71 µM
[31] = RPMI 5 mM glucose + 10% dialyzed FBS, 5.12 µM
[32] = RPMI 5 mM glucose + 10% dialyzed FBS, 15.4 µM
[33] = RPMI 5 mM glucose + 10% dialyzed FBS, 46.1 µM

O=C(c1ccc(Nc2nccc(-c3cc4ccccc4s3)n2)cc1)N1CCC(N2CCCC2)CC1 gave a cell viability [1] of 122%, a cell viability [2] of 132% and a cell viability [3] of 125%. For the same compound, the cell viability [4] was 125%, the cell viability [5] was 124% and the cell viability [6] was 114%. The cell viability [7] was 105%, the cell viability [8] was 95.3% and the cell viability [9] was 104%. For the same compound, the cell viability [10] was 41.8%, the cell viability [11] was 1.51% and the cell viability [12] was 113%. It also gave a cell viability [13] of 126%, a cell viability [14] of 107% and a cell viability [15] of 110%. The cell viability [16] was 106%, the cell viability [17] was 119% and the cell viability [18] was 118%. It also gave a cell viability [19] of 101%, a cell viability [20] of 96.2% and a cell viability [21] of 91.3%. For the same compound, the cell viability [22] was 2.67%, the cell viability [23] was 122% and the cell viability [24] was 129%. The cell viability [25] was 115%, the cell viability [26] was 114% and the cell viability [27] was 124%. The cell viability [28] was 106%, the cell viability [29] was 120% and the cell viability [30] was 121%. It also gave a cell viability [31] of 95%, a cell viability [32] of 80.2% and a cell viability [33] of 2.88%.
Compound CC/1=C(/N2[C@H](SC1)[C@H](NC(=O)[C@H](N)\C3=C\C\C=C/C3)C2=O)C(O)=O has a cell viability [1] of 97.5%, a cell viability [2] of 110% and a cell viability [3] of 103%. It also gave a cell viability [4] of 109%, a cell viability [5] of 108% and a cell viability [6] of 121%. It also gave a cell viability [7] of 123%, a cell viability [8] of 135% and a cell viability [9] of 121%. For the same compound, the cell viability [10] was 115%, the cell viability [11] was 121% and the cell viability [12] was 110%. It also gave a cell viability [13] of 119%, a cell viability [14] of 114% and a cell viability [15] of 118%. For the same compound, the cell viability [16] was 119%, the cell viability [17] was 124% and the cell viability [18] was 109%. It also gave a cell viability [19] of 117%, a cell viability [20] of 129% and a cell viability [21] of 125%. For the same compound, the cell viability [22] was 127%, the cell viability [23] was 102% and the cell viability [24] was 109%. It also gave a cell viability [25] of 104%, a cell viability [26] of 124% and a cell viability [27] of 115%. For the same compound, the cell viability [28] was 108%, the cell viability [29] was 114% and the cell viability [30] was 121%. It also gave a cell viability [31] of 126%, a cell viability [32] of 109% and a cell viability [33] of 118%.
C[S+]([O-])(=O)C1=CC=C(C=C1)C/2=C(/C(=O)OC2)C3=CC=CC=C3 showed a cell viability [12] of 106%, a cell viability [13] of 110% and a cell viability [14] of 118%. It also gave a cell viability [15] of 109%, a cell viability [16] of 120% and a cell viability [17] of 115%. The cell viability [18] was 118%, the cell viability [19] was 119% and the cell viability [20] was 114%. For the same compound, the cell viability [21] was 108%, the cell viability [22] was 123% and the cell viability [23] was 107%. The cell viability [24] was 118%, the cell viability [25] was 106% and the cell viability [26] was 111%. For the same compound, the cell viability [27] was 121%, the cell viability [28] was 118% and the cell viability [29] was 123%. It also gave a cell viability [30] of 120%, a cell viability [31] of 108% and a cell viability [32] of 131%. The cell viability [33] was 129%.
Work on COc1ccc(C2CNC(=O)C2)cc1OC1CCCC1 (stereo unspecified) yielded a cell viability [1] of 78.4%, a cell viability [2] of 105% and a cell viability [3] of 91.4%. It also gave a cell viability [4] of 97.7%, a cell viability [5] of 122% and a cell viability [6] of 105%. The cell viability [7] was 105%, the cell viability [8] was 112% and the cell viability [9] was 101%. The cell viability [10] was 99.6%, the cell viability [11] was 106% and the cell viability [12] was 85.8%. The cell viability [13] was 92.4%, the cell viability [14] was 92% and the cell viability [15] was 103%. The cell viability [16] was 109%, the cell viability [17] was 95.1% and the cell viability [18] was 92.5%. The cell viability [19] was 100%, the cell viability [20] was 92.4% and the cell viability [21] was 91.8%. It also gave a cell viability [22] of 107%, a cell viability [23] of 92.1% and a cell viability [24] of 94.5%. For the same compound, the cell viability [25] was 93.8%, the cell viability [26] was 95.2% and the cell viability [27] was 102%. It also gave a cell viability [28] of 96.7%, a cell viability [29] of 104% and a cell viability [30] of 94.7%. For the same compound, the cell viability [31] was 104%, the cell viability [32] was 98.7% and the cell viability [33] was 94.9%.
Work on Cc1cccc(Nc2nc(-c3ccncc3)cs2)c1 yielded a cell viability [1] of 96.3%, a cell viability [2] of 138% and a cell viability [3] of 121%. For the same compound, the cell viability [4] was 142%, the cell viability [5] was 137% and the cell viability [6] was 140%. For the same compound, the cell viability [7] was 111%, the cell viability [8] was 145% and the cell viability [9] was 142%. It also gave a cell viability [10] of 136%, a cell viability [11] of 134% and a cell viability [23] of 122%. It also gave a cell viability [24] of 121%, a cell viability [25] of 128% and a cell viability [26] of 123%. The cell viability [27] was 125%, the cell viability [28] was 135% and the cell viability [29] was 134%. The cell viability [30] was 129%, the cell viability [31] was 128% and the cell viability [32] was 134%. It also gave a cell viability [33] of 107%.
Compound Cc1c(C(=O)NN2CCCCC2)nn(-c2ccc(Cl)cc2Cl)c1-c1ccc(Cl)cc1 has a cell viability [23] of 122%, a cell viability [24] of 120% and a cell viability [25] of 125%. For the same compound, the cell viability [26] was 143%, the cell viability [27] was 128% and the cell viability [28] was 138%. It also gave a cell viability [29] of 76.3%, a cell viability [30] of 46.8% and a cell viability [31] of 32.8%. It also gave a cell viability [32] of 28.1% and a cell viability [33] of 36%.
C[S+](=O)([O-])N1CCc2c(-c3cnc(N)nc3)nc(N3CCOCC3)nc21 was tested, and the cell viability [1] was 105%, the cell viability [2] was 102% and the cell viability [3] was 112%. The cell viability [4] was 118%, the cell viability [5] was 104% and the cell viability [6] was 107%. It also gave a cell viability [7] of 86.6%, a cell viability [8] of 76.4% and a cell viability [9] of 77.9%. It also gave a cell viability [10] of 76.2%, a cell viability [11] of 74.4% and a cell viability [12] of 107%. For the same compound, the cell viability [13] was 104%, the cell viability [14] was 99.3% and the cell viability [15] was 110%. It also gave a cell viability [16] of 102%, a cell viability [17] of 99.5% and a cell viability [18] of 101%. It also gave a cell viability [19] of 88.9%, a cell viability [20] of 95% and a cell viability [21] of 81.9%. It also gave a cell viability [22] of 74%, a cell viability [23] of 99% and a cell viability [24] of 103%. For the same compound, the cell viability [25] was 99.6%, the cell viability [26] was 97.7% and the cell viability [27] was 93.6%. For the same compound, the cell viability [28] was 96.9%, the cell viability [29] was 77.3% and the cell viability [30] was 69.4%. It also gave a cell viability [31] of 73.7%, a cell viability [32] of 69.7% and a cell viability [33] of 56.8%.
With COCCCN1CCC(NC(=O)c2cc(Cl)c(N)c3c2OCC3)CC1 the cell viability [1] was 116%, the cell viability [2] was 124% and the cell viability [3] was 127%. It also gave a cell viability [4] of 119%, a cell viability [5] of 147% and a cell viability [6] of 137%. For the same compound, the cell viability [7] was 133%, the cell viability [8] was 150% and the cell viability [9] was 142%. The cell viability [10] was 137% and the cell viability [11] was 110%.
With CN(NC(=O)CC(=O)NN(C)C(=S)c1ccccc1)C(=S)c1ccccc1 the cell viability [1] was 85.2%, the cell viability [2] was 101% and the cell viability [3] was 91.7%. It also gave a cell viability [4] of 111%, a cell viability [5] of 52.3% and a cell viability [6] of 21.7%. The cell viability [7] was 3.16%, the cell viability [8] was 4.21% and the cell viability [9] was 4.19%. The cell viability [10] was 4.38%, the cell viability [11] was 6.98% and the cell viability [12] was 86%. It also gave a cell viability [13] of 80.2%, a cell viability [14] of 97.5% and a cell viability [15] of 95.2%. For the same compound, the cell viability [16] was 53.4%, the cell viability [17] was 16.7% and the cell viability [18] was 3.21%. The cell viability [19] was 3.39%, the cell viability [20] was 4.47% and the cell viability [21] was 6.75%. The cell viability [22] was 15.8%, the cell viability [23] was 83.4% and the cell viability [24] was 89.2%. For the same compound, the cell viability [25] was 82.1%, the cell viability [26] was 94.6% and the cell viability [27] was 39%. The cell viability [28] was 10.7%, the cell viability [29] was 2.4% and the cell viability [30] was 2.7%. It also gave a cell viability [31] of 3.68%, a cell viability [32] of 2.79% and a cell viability [33] of 9.44%.
